Measured values as given in patent US7994172B2, “[1H-pyrazolo[3, 4-D]pyrimidin-4-yl]-piperidine or -piperazine compounds as serine-theoronine kinase modulators (P70s6k, Atk1 and Atk2) for the treatment of immunological, inflammatory and proliferative diseases” (Exelixis, Inc., priority 2004, dated 2011).

How the values were obtained:
[1] = target: T1, human p70S6 kinase (p70S6K, kinase domain residues 1-421, T412E mutation) (Homo sapiens, UniProt P23443, T412E); assay: p70S6 kinase assay, Luciferase-Coupled Chemiluminescent Kinase assay (LCCA); type: biochemical; conditions: 5 μM ATP, 12 nM p70S6K; read-out: p70S6K inhibition IC50
T1 construct: human p70S6 kinase domainresidues 1-421, containing a T412E mutation; made in house
Protocol: (§1) Kinase activity and compound inhibition are investigated using one or more of the three assay formats described below. The ATP concentrations for each assay are selected to be close to the Michaelis-Menten constant (KM) for each individual kinase. Dose-response experiments are performed at 10 different inhibitor concentrations in a 384-well plate format. The data are fitted to four-parameter equation (2) below; where Y is the observed signal, X is the inhibitor concentration, Min is the background signal in the absence of enzyme (0% enzyme activity), Max is the signal in the absence of inhibitor (100% enzyme activity), IC50 is the inhibitor concentration at 50% enzyme inhibition and H represents the empirical Hill's slope to measure the cooperativity. Typically H is close to unity. Y=Min+(Max−Min)/(1+(X/IC50)^H) Equation (2) p70S6 Kinase Assay
Biochemical activity of p70S6 kinase was assessed using a Luciferase-Coupled Chemiluminescent Kinase assay (LCCA) format. Kinase activity was measured as the percent ATP remaining following the kinase reaction. Remaining ATP was detected by luciferase-luciferin-coupled chemiluminescence. Specifically, the reaction was initiated by mixing test compounds, 5 μM ATP, 5 μM RRRLSSLRA peptide and 12 nM p70S6K (baculovirus expressed human p70S6 kinase domainresidues 1-421, containing a T412E mutation) in a 20 uL assay buffer (20 mM Tris-HCL pH 7.5, 10 mM MgCl2, 0.02% Triton X-100, 100 mM DTT, 2 mM MnCl2). The mixture is incubated at ambient temperature for 2 hours after which 20 μL luciferase-luciferin mix is added and the chemiluminescent signal read using a Wallac Victor^2 reader. The luciferase-luciferin mix consists of 50 mM HEPES, pH 7.8, 8.5 μg/mL oxalic acid (pH 7.8), 5 (or 50) mM DTT, 0.4% Triton X-100, 0.25 mg/mL coenzyme A, 63 uM AMP, 28 μg/mL luciferin and 40,000 units/mL luciferase.

[2] = target: T2, human Akt1 kinase (kinase domain residues R144-A480, activated with PDK1) (Homo sapiens, UniProt P31749); assay: Akt1 kinase assay, Luciferase-Coupled Chemiluminescent Kinase assay (LCCA); type: biochemical; conditions: 1 μM ATP, 1.3 nM Akt1; read-out: Akt-1 inhibition IC50
T2 construct: made in house
Protocol: as §1
Biochemical activity of Akt1 kinase was assessed using a Luciferase-Coupled Chemiluminescent Kinase assay (LCCA) format. Kinase activity was measured as the percent ATP remaining following the kinase reaction. Remaining ATP was detected by luciferase-luciferin-coupled chemiluminescence. Specifically, the reaction was initiated by mixing test compounds, 1 μM ATP, 5 μM crosstide peptide and 1.3 nM Akt1 (baculovirus expressed human Akt1 kinase domain residues R144-A480, activated with PDK1) in a 20 uL assay buffer (20 mM Tris-HCL pH 7.5, 10 mM MgCl2, 0.01% Triton X-100, 1 mM DTT, 3 mM MnCl2). The mixture is incubated at ambient temperature for 3 hours after which 20 μL luciferase-luciferin mix is added and the chemiluminescent signal read using a Wallac Victor2 reader. The luciferase-luciferin mix consists of 50 mM HEPES, pH 7.8, 8.5 μg/mL oxalic acid (pH 7.8), 5 (or 50) mM DTT, 0.4% Triton X-100, 0.25 mg/mL coenzyme A, 63 uM AMP, 28 μg/mL luciferin and 40,000 units/mL luciferase.

T1 sequence (P23443 1-421 T412E): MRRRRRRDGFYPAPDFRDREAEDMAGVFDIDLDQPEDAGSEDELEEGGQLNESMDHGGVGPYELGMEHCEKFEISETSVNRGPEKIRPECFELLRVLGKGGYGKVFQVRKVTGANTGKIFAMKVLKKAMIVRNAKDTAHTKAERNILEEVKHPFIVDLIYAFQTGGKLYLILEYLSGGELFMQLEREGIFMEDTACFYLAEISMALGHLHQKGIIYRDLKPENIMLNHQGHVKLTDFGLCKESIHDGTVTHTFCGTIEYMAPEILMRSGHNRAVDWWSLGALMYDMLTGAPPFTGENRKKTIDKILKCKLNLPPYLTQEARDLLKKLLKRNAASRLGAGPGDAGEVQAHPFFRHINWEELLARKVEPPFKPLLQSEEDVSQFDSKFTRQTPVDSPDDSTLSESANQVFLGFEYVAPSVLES
T2 sequence (P31749 144-480): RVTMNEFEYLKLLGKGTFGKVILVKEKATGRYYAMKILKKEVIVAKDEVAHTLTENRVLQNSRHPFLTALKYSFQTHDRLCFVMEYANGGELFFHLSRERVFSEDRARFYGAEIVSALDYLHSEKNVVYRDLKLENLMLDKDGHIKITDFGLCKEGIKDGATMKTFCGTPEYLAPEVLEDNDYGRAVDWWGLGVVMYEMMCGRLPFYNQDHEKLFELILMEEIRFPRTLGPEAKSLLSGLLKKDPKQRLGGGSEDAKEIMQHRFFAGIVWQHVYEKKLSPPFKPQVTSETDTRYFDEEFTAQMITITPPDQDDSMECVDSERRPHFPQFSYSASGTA

SMILES | IC50 [1] | IC50 [2]
OC(c1ccc(Cl)cc1)C1CCN(c2ncnc3[nH]nc(Br)c23)CC1 (centres unmarked) [Entry 1, [1-(3-bromo-1H-pyrazolo[3,4-d]pyrimidin-4-yl)piperidin-4-yl](4-chlorophenyl)methanol] | < 50 nM | < 50 nM
CN(C)CCCOC(c1ccc(Cl)cc1)C1CCN(c2ncnc3[nH]nc(Br)c23)CC1 (centres unmarked) [Entry 3, 3-{[[1-(3-bromo-1H-pyrazolo[3,4-d]pyrimidin-4-yl)piperidin-4-yl](4-chlorophenyl)methyl]oxy}-N,N-dimethylpropan-1-amine] | < 50 nM | < 50 nM
Brc1ccc(CN2CCN(c3ncnc4[nH]nc(Br)c34)CC2)cc1 [Entry 4, 3-bromo-4-{4-[(4-bromophenyl)methyl]piperazin-1-yl}-1H-pyrazolo[3,4-d]pyrimidine] | < 50 nM | 50 to 500 nM
OCC1CN(c2ncnc3[nH]nc(Br)c23)CCN1Cc1ccc(Cl)cc1 (centres unmarked) [Entry 5, {4-(3-bromo-1H-pyrazolo[3,4-d]pyrimidin-4-yl)-1-[(4-chlorophenyl)methyl]piperazin-2-yl}methanol] | < 50 nM | 50 to 500 nM
CCN(CC)CCNC(c1ccc(Cl)cc1)C1CCN(c2ncnc3[nH]nc(Br)c23)CC1 (centres unmarked) [Entry 6, N′-[[1-(3-bromo-1H-pyrazolo[3,4-d]pyrimidin-4-yl)piperidin-4-yl](4-chlorophenyl)methyl]-N,N-diethylethane-1,2-diamine] | < 50 nM | < 50 nM
O=C1CN(c2ncnc3[nH]nc(Br)c23)CCN1Cc1ccc(Cl)cc1 [Entry 8, 4-(3-bromo-1H-pyrazolo[3,4-d]pyrimidin-4-yl)-1-[(4-chlorophenyl)methyl]piperazin-2-one] | < 50 nM | 50 to 500 nM
CN(C)CCNC(=O)C(c1ccc(Cl)cc1)N1CCN(c2ncnc3[nH]nc(Br)c23)CC1 (centres unmarked) [Entry 9, 2-[4-(3-bromo-1H-pyrazolo[3,4-d]pyrimidin-4-yl)piperazin-1-yl]-2-(4-chlorophenyl)-N-[2-(dimethylamino)ethyl]acetamide] | < 50 nM | < 50 nM
CCN(CC)CCCN(c1ccc(Cl)cc1)C1CCN(c2ncnc3[nH]nc(Br)c23)CC1 [Entry 10, N-[1-(3-bromo-1H-pyrazolo[3,4-d]pyrimidin-4-yl)piperidin-4-yl]-N-(4-chlorophenyl)-N′,N′-diethylpropane-1,3-diamine] | < 50 nM | < 50 nM
CN(C)CCNC(=O)N(c1ccc(Cl)cc1)C1CCN(c2ncnc3[nH]nc(Br)c23)CC1 [Entry 12, N-[1-(3-bromo-1H-pyrazolo[3,4-d]pyrimidin-4-yl)piperidin-4-yl]-N-(4-chlorophenyl)-N′-[2-(dimethylamino)ethyl]urea] | < 50 nM | < 50 nM
CN(C)CCNC(=O)NC(c1ccc(Cl)cc1)C1CCN(c2ncnc3[nH]nc(Br)c23)CC1 (centres unmarked) [Entry 13, N-[[1-(3-bromo-1H-pyrazolo[3,4-d]pyrimidin-4-yl)piperidin-4-yl](4-chlorophenyl)methyl]-N′-[2-(dimethylamino)ethyl]urea] | < 50 nM | < 50 nM
CN(C)CCNC(=O)C(c1ccc(Cl)cc1)N1CCN(c2ncnc3[nH]nc(Br)c23)CC1=O (centres unmarked) [Entry 14, 2-[4-(3-bromo-1H-pyrazolo[3,4-d]pyrimidin-4-yl)-2-oxopiperazin-1-yl]-2-(4-chlorophenyl)-N-[2-(dimethylamino)ethyl]acetamide] | < 50 nM | < 50 nM
CN(C)CCOC(=O)N(c1ccc(Cl)cc1)C1CCN(c2ncnc3[nH]nc(Br)c23)CC1 [Entry 15, 2-(dimethylamino)ethyl [1-(3-bromo-1H-pyrazolo[3,4-d]pyrimidin-4-yl)piperidin-4-yl](4-chlorophenyl)carbamate] | < 50 nM | < 50 nM
Fc1cc(CN2CCN(c3ncnc4[nH]nc(Br)c34)CC2)ccc1Cl [Entry 16, 3-bromo-4-{4-[(4-chloro-3-fluorophenyl)methyl]piperazin-1-yl}-1H-pyrazolo[3,4-d]pyrimidine] | < 50 nM | 50 to 500 nM
